In the experiment the target is GST-Bcl-2 (Homo sapiens (Human), UniProt P10415). The experiment can be described thus: Time Resolved-Fluorescence Resonance Energy Transfer (TR-FRET) Bcl-2 binding assay. In short, it runs like this:
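Competition TR-FRET: GST-Bcl-2 with fluorescent Bak peptide probe and Tb-anti-GST antibody, compounds serially diluted from 50 μM (2× start, 10% DMSO).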
(In general: Time-resolved FRET reads energy transfer from a long-lived donor to a nearby acceptor.)

Setting [1] is: GST-Bcl-2 1 nM, F-Bak peptide probe 100 nM, Tb-anti-GST antibody 1 nM, Ki by Wang's equation.

Like-named read-outs stand apart in the source and are kept apart here. Some results are limits rather than exact numbers.

The Ki is the dissociation constant of the complex between target and ligand, obtained from inhibition or displacement. Read a low Ki as tighter binding.

GST-Bcl-2, sequence (P10415 whole entry): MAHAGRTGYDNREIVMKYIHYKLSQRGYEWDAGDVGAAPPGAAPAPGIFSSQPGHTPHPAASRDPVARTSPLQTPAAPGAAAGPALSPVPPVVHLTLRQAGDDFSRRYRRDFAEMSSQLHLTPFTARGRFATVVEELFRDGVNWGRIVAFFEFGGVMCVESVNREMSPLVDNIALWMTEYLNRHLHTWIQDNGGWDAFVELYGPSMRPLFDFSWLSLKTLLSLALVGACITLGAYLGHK

For `CC1(C)CCC(CN2CCN(c3ccc(C(=O)NS(=O)(=O)c4ccc(NCC5(N)CCOCC5)c([N+](=O)[O-])c4)c(Oc4cccc(Cl)c4)c3)CC2)=C(c2ccc(Cl)cc2)C1` [Example 109, N-[(4-{[(4-aminotetrahydro-2H-pyran-4-yl)methyl]amino}-3-nitrophenyl)sulfonyl]-2-(3-chlorophenoxy)-4-(4-{[2-(4-chlorophenyl)-4,4-dimethylcyclohex-1-en-1-yl]methyl}piperazin-1-yl)benzamide], under setting [1], the inhibition constant Ki came to 0.237 nM.
`CC1(C)CCC(CN2CCN(c3ccc(C(=O)NS(=O)(=O)c4ccc(NCC5CCOCC5)c([N+](=O)[O-])c4)c(Oc4cc(N)cc(Cl)c4)c3)CC2)=C(c2ccc(Cl)cc2)C1` [Example 309, 2-(3-amino-5-chlorophenoxy)-4-(4-{[2-(4-chlorophenyl)-4,4-dimethylcyclohex-1-en-1-yl]methyl}piperazin-1-yl)-N-({3-nitro-4-[(tetrahydro-2H-pyran-4-ylmethyl)amino]phenyl}sulfonyl)benzamide] came in with a Ki under setting [1] of 0.69 nM. This Ki lies about 2.9-fold higher than the previous one.
For the compound `CN1CCC(Nc2ccc(S(=O)(=O)NC(=O)c3ccc(N4CCN(CC5=C(c6ccc(Cl)cc6)CC(C)(C)CC5)CC4)cc3Oc3ccccc3F)cc2[N+](=O)[O-])CC1` [Example 122, 4-(4-{[2-(4-chlorophenyl)-4,4-dimethylcyclohex-1-en-1-yl]methyl}piperazin-1-yl)-2-(2-fluorophenoxy)-N-({4-[(1-methylpiperidin-4-yl)amino]-3-nitrophenyl}sulfonyl)benzamide], the inhibition constant (Ki) under setting [1] is less than 0.001 nM.
The same measure, in the same setting: next, `CC1(C)CCC(CN2CCN(c3ccc(C(=O)NS(=O)(=O)c4ccc(NCC5CCOCC5)c([N+](=O)[O-])c4)c(Oc4cncc(N)c4)c3)CC2)=C(c2ccc(Cl)cc2)C1` [Example 279, 2-[(5-aminopyridin-3-yl)oxy]-4-(4-{[2-(4-chlorophenyl)-4,4-dimethylcyclohex-1-en-1-yl]methyl}piperazin-1-yl)-N-({3-nitro-4-[(tetrahydro-2H-pyran-4-ylmethyl)amino]phenyl}sulfonyl)benzamide]: 1.7 nM.
With `CC1(C)CCC(CN2CCN(c3ccc(C(=O)NS(=O)(=O)c4ccc(N[C@H]5CC[C@H](N6CCOCC6)CC5)c([N+](=O)[O-])c4)c(Oc4cc5cc[nH]c5cc4Cl)c3)CC2)=C(c2ccc(Cl)cc2)C1` [Example 293, Trans-2-[(6-chloro-1H-indol-5-yl)oxy]-4-(4-{[2-(4-chlorophenyl)-4,4-dimethylcyclohex-1-en-1-yl]methyl}piperazin-1-yl)-N-({4-[(4-morpholin-4-ylcyclohexyl)amino]-3-nitrophenyl}sulfonyl)benzamide], affinity was put at a Ki of 0.233 nM. This lies in the sub-nanomolar range.
For `CC1(C)CCC(CN2CCN(c3ccc(C(=O)NS(=O)(=O)c4ccc(NCC5CCOCC5)c([N+](=O)[O-])c4)c(Oc4ccnc(NC(=O)OC(C)(C)C)c4)c3)CC2)=C(c2ccc(Cl)cc2)C1` [Example 280, tert-butyl 4-(5-(4-{[2-(4-chlorophenyl)-4,4-dimethylcyclohex-1-en-1-yl]methyl}piperazin-1-yl)-2-{[({3-nitro-4-[(tetrahydro-2H-pyran-4-ylmethyl)amino]phenyl}sulfonyl)amino]carbonyl}phenoxy)pyridin-2-ylcarbamate], the affinity under setting [1] corresponds to a Ki of 7.55 nM.
`CC1(C)CCC(CN2CCN(c3ccc(C(=O)NS(=O)(=O)c4ccc(NCC5CCOCC5)c([N+](=O)[O-])c4)c(Oc4ccc(N)c(Cl)c4)c3)CC2)=C(c2ccc(Cl)cc2)C1` [Example 247, 2-(4-amino-3-chlorophenoxy)-4-(4-{[2-(4-chlorophenyl)-4,4-dimethylcyclohex-1-en-1-yl]methyl}piperazin-1-yl)-N-({3-nitro-4-[(tetrahydro-2H-pyran-4-ylmethyl)amino]phenyl}sulfonyl)benzamide] registered an inhibitory constant (Ki) under setting [1] of 0.039 nM. Against the preceding compound, the Ki is about 190-fold lower.
Still for that read-out and setting: next, `N#Cc1cccc(Oc2cc(N3CCN(Cc4ccccc4-c4ccc(Cl)cc4)CC3)ccc2C(=O)NS(=O)(=O)c2ccc(NCC3CCOCC3)c([N+](=O)[O-])c2)c1` [Example 22, 4-(4-((4′-chloro-1,1′-biphenyl-2-yl)methyl)piperazin-1-yl)-2-(3-cyanophenoxy)-N-((3-nitro-4-((tetrahydro-2H-pyran-4-ylmethyl)amino)phenyl)sulfonyl)benzamide]: 5.46 nM.
`CN1CCN(Nc2ccc(S(=O)(=O)NC(=O)c3ccc(N4CCN(CC5=C(c6ccc(Cl)cc6)CC(C)(C)CC5)CC4)cc3Oc3cc4cc[nH]c4cc3Cl)cc2[N+](=O)[O-])CC1` [Example 244, 2-[(6-chloro-1H-indol-5-yl)oxy]-4-(4-{[2-(4-chlorophenyl)-4,4-dimethylcyclohex-1-en-1-yl]methyl}piperazin-1-yl)-N-({4-[(4-methylpiperazin-1-yl)amino]-3-nitrophenyl}sulfonyl)benzamide] registered an inhibitory constant (Ki) under setting [1] of 1.73 nM.
Regarding `O=C(NS(=O)(=O)c1ccc(NCC2CCOCC2)c([N+](=O)[O-])c1)c1ccc(N2CCN(Cc3ccccc3-c3ccc(Cl)cc3)CC2)cc1Oc1cccc(N2CCOCC2)c1` [Example 89, 4-(4-((4′-chloro-1,1′-biphenyl-2-yl)methyl)piperazin-1-yl)-2-(3-morpholin-4-ylphenoxy)-N-((3-nitro-4-((tetrahydro-2H-pyran-4-ylmethyl)amino)phenyl)sulfonyl)benzamide], the Ki under setting [1] came out at 6.11 nM.
Compound “2-(2-chlorophenoxy)-4-(4-{([2-(4-chlorophenyl)-4,4-dimethylcyclohex-1-en-1-yl]methyl}piperazin-1-yl)-N-({4-[(1,4-dimethylpiperidin-4-yl)amino]-3-nitrophenyl}sulfonyl)benzamide [Example 168]” came in with a Ki under setting [1] of 28.3 nM. This Ki lies about 4.6-fold higher than the previous one.
Under setting [1], `CN(C)CCOc1ccc(-c2ccc(Cl)cc2)c(CN2CCN(c3ccc(C(=O)NS(=O)(=O)c4ccc(NC5CCN(C)CC5)c([N+](=O)[O-])c4)c(Oc4cccc(Cl)c4)c3)CC2)c1` [Example 37, 4-(4-((4′-chloro-4-(2-(dimethylamino)ethoxy)-1,1′-biphenyl-2-yl)methyl)piperazin-1-yl)-2-(3-chlorophenoxy)-N-((4-((1-methylpiperidin-4-yl)amino)-3-nitrophenyl)sulfonyl)benzamide] yielded an inhibitory constant (Ki) of 0.005 nM. This Ki lies about 5700-fold lower than the previous one.
As to `CC1(C)CC(c2ccc(Cl)cc2)=C(CN2CCN(c3ccc(C(=O)NS(=O)(=O)c4cnc(OCC5(F)CCOCC5)c(Cl)c4)c(Oc4cnc(N)c(Cl)c4)c3)CC2)CO1` [Example 390, 2-[(6-amino-5-chloropyridin-3-yl)oxy]-N-({5-chloro-6-[(4-fluorotetrahydro-2H-pyran-4-yl)methoxy]pyridin-3-yl}sulfonyl)-4-(4-{[4-(4-chlorophenyl)-6,6-dimethyl-5,6-dihydro-2H-pyran-3-yl]methyl}piperazin-1-yl)benzamide], under setting [1], the Ki was less than 0.01 nM.
Under setting [1], `CC1(C)CCC(CN2CCN(c3ccc(C(=O)NS(=O)(=O)c4ccc(NCC5CCOCC5)c([N+](=O)[O-])c4)c(Oc4cc(NC(=O)OC(C)(C)C)ncc4Br)c3)CC2)=C(c2ccc(Cl)cc2)C1` [Example 383, tert-butyl 5-bromo-4-(5-(4-{[2-(4-chlorophenyl)-4,4-dimethylcyclohex-1-en-1-yl]methyl}piperazin-1-yl)-2-{[({3-nitro-4-[(tetrahydro-2H-pyran-4-ylmethyl)amino]phenyl}sulfonyl)amino]carbonyl}phenoxy)pyridin-2-ylcarbamate] came in with a Ki of 427 nM. This counts as sub-micromolar.
Regarding `CC1(C)CCC(CN2CCN(c3ccc(C(=O)NS(=O)(=O)c4ccc(NCCCN5CCOCC5)c([N+](=O)[O-])c4)c(Oc4cccc(Cl)c4F)c3)CC2)=C(c2ccc(Cl)cc2)C1` [Example 148, 2-(3-chloro-2-fluorophenoxy)-4-(4-{[2-(4-chlorophenyl)-4,4-dimethylcyclohex-1-en-1-yl]methyl}piperazin-1-yl)-N-({4-[(3-morpholin-4-ylpropyl)amino]-3-nitrophenyl}sulfonyl)benzamide], under setting [1], affinity was put at a Ki of 0.106 nM.
Under setting [1], `CC1(C)CC(c2ccc(Cl)cc2)=C(CN2CCN(c3ccc(C(=O)NS(=O)(=O)c4cnc(OCC5CCOCC5)c(C#N)c4)c(Oc4cc5cc[nH]c5cc4F)c3)CC2)CO1` [Example 298, 4-(4-{[4-(4-chlorophenyl)-6,6-dimethyl-5,6-dihydro-2H-pyran-3-yl]methyl}piperazin-1-yl)-N-{[5-cyano-6-(tetrahydro-2H-pyran-4-ylmethoxy)pyridin-3-yl]sulfonyl}-2-[(6-fluoro-1H-indol-5-yl)oxy]benzamide] had a Ki of 0.054 nM.
For `CC1(C)CCC(CN2CCN(c3ccc(C(=O)NS(=O)(=O)c4ccc(N[C@H]5CC[C@H](NC6CCOCC6)CC5)c([N+](=O)[O-])c4)c(Oc4cc5cc[nH]c5cc4F)c3)CC2)=C(c2ccc(Cl)cc2)C1` [Example 335, Trans-4-(4-{[2-(4-chlorophenyl)-4,4-dimethylcyclohex-1-en-1-yl]methyl}piperazin-1-yl)-2-[(6-fluoro-1H-indol-5-yl)oxy]-N-[(3-nitro-4-{[4-(tetrahydro-2H-pyran-4-ylamino)cyclohexyl]amino}phenyl)sulfonyl]benzamide], the Ki was less than 0.01 nM.
`CCN(Cc1cccc(Oc2cc(N3CCN(Cc4ccccc4-c4ccc(Cl)cc4)CC3)ccc2C(=O)NS(=O)(=O)c2ccc(NCC3CCOCC3)c([N+](=O)[O-])c2)c1)C(=O)OC(C)(C)C` [Example 79, tert-butyl 3-(5-(4-((4′-chloro-1,1′-biphenyl-2-yl)methyl)piperazin-1-yl)-2-((((3-nitro-4-((tetrahydro-2H-pyran-4-ylmethyl)amino)phenyl)sulfonyl)amino)carbonyl)phenoxy)benzyl(ethyl)carbamate] had a Ki under setting [1] of 99.8 nM.
As for `CC1(C)CCC(CN2CCN(c3ccc(C(=O)NS(=O)(=O)c4ccc(NCC5CCOCC5)c([N+](=O)[O-])c4)c(Oc4cnc(N)c(F)c4)c3)CC2)=C(c2ccc(Cl)cc2)C1` [Example 302, 2-[(6-amino-5-fluoropyridin-3-yl)oxy]-4-(4-{[2-(4-chlorophenyl)-4,4-dimethylcyclohex-1-en-1-yl]methyl}piperazin-1-yl)-N-({3-nitro-4-[(tetrahydro-2H-pyran-4-ylmethyl)amino]phenyl}sulfonyl)benzamide], the Ki under setting [1] is less than 0.01 nM.
